Patent US10577638B2, “Systems, devices, and methods for microbial detection and identification, and antimicrobial susceptibility testing” (Board of Regents, The University of Texas System, priority 2013, dated 2020)

Test system: CA-MRSA clinical isolates and a wild type CA-MRSA strain
Experiment: AST-Chip antibiotic susceptibility test of CA-MRSA clinical isolates (FUN-1 fluorescence)
Format: cell-based, Staphylococcus aureus
Details: isolates A32, K2 and B2 compared with isolates I27, D1, M2 and WT, 8 μg/ml, incubated 16 h
Method: The key steps in chip fabrication are described in below (these methods are also described in Srinivasan et al., which is incorporated by reference herein). The fabrication included three steps: (i) modification of the surface of glass slides with poly(styrene-co-maleic anhydride) (PSMA); (ii) printing spots of a 30 nl mixture of poly-l-lysine and barium chloride to create a “tie-layer” using a robotic microarrayer (Microsys, Digilab); and (iii) printing a 30 nl mixture of 0.5% alginate solution, optimized-growth medium and antimicrobial agents at various concentrations on top of the tie-layer. […]
The AST-Chip was benchmarked by evaluating the antimicrobial-susceptibility of a wild type strain of Staphylococcus aureus (UAMS-1) and CA-MRSA (USA 300) against methicillin. […] After incubation, the cell density at different spots was quantified using FUN-1, a vital fluorescent dye with excitation and emission wavelength that is compatible with a standard microarray scanner and facilitating faster read out (FIG. 6A). The fluorescence intensity of control (no drug) and sodium hypochlorite-treated dead biofilms were set at 100% and 0%, respectively. The inhibitory effects of the antimicrobial agents were determined by the reduction in fluorescence intensity in comparison to the controls (FIG. 6B). […]

## CN[C@H](CC(C)C)C(=O)N[C@H]1C(=O)N[C@@H](CC(N)=O)C(=O)N[C@H]2C(=O)N[C@H]3C(=O)N[C@H](C(=O)N[C@H](C(=O)O)c4cc(O)cc(O)c4-c4cc3ccc4O)[C@H](O)c3ccc(c(Cl)c3)Oc3cc2cc(c3O[C@@H]2O[C@H](CO)[C@@H](O)[C@H](O)[C@H]2O[C@H]2C[C@](C)(N)[C@H](O)[C@H](C)O2)Oc2ccc(cc2Cl)[C@H]1O [vancomycin]
  relative susceptibility of isolates to the drug: less susceptible
